Data as given in US10857201B2, “NNIF and nNIF-related peptides and related methods” (UNIVERSITY OF UTAH RESEARCH FOUNDATION, priority 2016, dated 2020).
“Also recorded” adds a separate entry of the source.

Key:
[1] = test system: nuclear chromatin decondensation in PMNs; test: Nuclear decondensation assay in PMA-treated neutrophils; type: cell-based, human; details: PMA 20 nM; peptides 1 nM, Cl-amidine 10 μM, sivelestat 200 nM
Experimental: FIG. 7B is a graph depicting nuclear areas that were measured (n=4) using IMAGEJ™ software (mean nuclear pixel area per cell±SEM). Paired Student's t test, *P<0.05, § P=0.057.
FIG. 12A depicts nuclear decondensation (white arrowheads and magnified image) that were assessed as in FIGS. 7A-7E after a 1 hour preincubation in medium alone, with neutrophil elastase (NE) inhibitor sivelestat (SIVL; 200 nM), or with CRISPP or CRISPP-SCR (both 1 nM) followed by treatment with PMA (20 nM) and an additional 1 hour incubation (n=3). Green fluorescence=nuclear DNA, (60× magnification, scale bar=20 μm). Nuclear area was quantified using IMAGEJ™ software (nuclear pixel area per cell±SEM). One way ANOVA with Tukey's post hoc testing; **P<0.01, ***P<0.001.
Nuclear decondensation was identified as described (see Papayannopoulos V, et al., J Cell Biol. 2010; 191 (3):677-91). Five randomly selected high-power visual fields per sample were captured via confocal microscopy and analyzed for nuclear area using the cell-permeable, fluorescent DNA dye SYTO® Green. The nuclear pixel areas of >100 individual cells per high-power field were determined using IMAGEJ™ software (NIH).

[2] = test system: nuclear histone H3 citrullination; test: Histone H3 citrullination in PMA-activated neutrophils (immunocytochemistry); type: cell-based, human; details: PMA 20 nM, 15 minutes; peptides 1 nM, Cl-amidine 10 μM
Description: Green fluorescence=citrullinated-histone H3, magenta fluorescence=nuclear DNA (60× magnification; scale bar=20 μm). The right panel depicts Histone H3 citrullination that was quantified using IMAGEJ™ software (mean citrullinated-histone H3 pixel area per cell±SEM) (n=3). One way ANOVA with Tukey's post hoc testing, *P<0.05.
Imaging was accomplished via confocal microscopy using a FV1000 IX81 confocal microscope and FLUOVIEW™ software (OLYMPUS™). Semi-quantitation was accomplished using IMAGEJ™ software (NIH) to determine the average citrullinated histone H3 content per cell.

[3] = molecular target: T1, neutrophil elastase (NE) (Homo sapiens, UniProt P08246); test: Neutrophil elastase activity assay; type: biochemical; details: in vitro; (MeOSuc)-AAPV-(pNA) 160 μM, 3 hours, 37° C., and additional assays
T1 construct: purchased SIGMA-ALDRICH
T1 sequence (P08246 30-267): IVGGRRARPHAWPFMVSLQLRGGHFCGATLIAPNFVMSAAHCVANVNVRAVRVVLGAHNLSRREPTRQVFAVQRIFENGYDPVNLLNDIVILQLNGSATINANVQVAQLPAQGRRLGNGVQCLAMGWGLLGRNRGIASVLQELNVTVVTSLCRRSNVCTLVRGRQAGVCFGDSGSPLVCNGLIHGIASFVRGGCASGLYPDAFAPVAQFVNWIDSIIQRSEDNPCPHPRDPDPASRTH
Experimental: FIG. 12B depicts NE enzyme activity that was examined by cleavage of the synthetic substrate (MeOSuc)-AAPV-(pNA) to (MeOSuc)-AAPV and (pNA) as products detected by liquid chromatography and chromatogram peak identification by mass spectroscopy. (MeOSuc)-AAPV-(pNA) (160 μm) was incubated with NE (2 mU), sivelestat (160 μm), or NE and sivelestat (left panel) or with NE (2 mU), nNIF ([…]), or NE and nNIF (right panel) for 3 hours at 37° C. Chromatograms are offset on the X and Y axes for ease of comparison. In the presence of NE alone, the (MeOSvc)-AAPV-(pNA) peak was almost completely eliminated and (MeOSvc)-AAPV and (pNA) peaks were generated. […] In contrast, it was not inhibited by nNIF.
Synthetic fluorogenic substrate of NE, (MeOSuc)-AAPV-(pNA) (160 μM), was incubated with bioactive NE (500 nM)±the NE inhibitor, sivelestat (160 μM) or nNIF (50 nM), for 3 hours at 37° C. The reactions were quenched with 5% glacial acetic acid and centrifuged at 14,000 rpm for 5 minutes. Chromatograms were obtained using an AGILENT™ 1100 Series HPLC and a PHENOMENEX® 5 μm C18 LUNA® column (100 Å, 4.6×150 mm) over a 30 minute 10% to 90% B gradient (Buffer A 0.1% TFA in H2O, Buffer B 0.1% TFA in ACN). Mass spectra were obtained for secondary validation of the reaction products using an API® 3500 triple quadrupole mass spectrometer. Chromatograms were offset on both the X and Y axes (by 0.5 minutes and 0.1 A214, respectively) for greater visibility.

[4] = test system: previously-formed NETs; test: Post-treatment of previously formed NETs (dismantling); type: cell-based, human; details: agent added after LPS stimulation; nNIF, CRISPP 1 nM; DNase 3.78 U/mL
Experimental: FIG. 4A is a series of images depicting neutrophils isolated from venous blood of healthy adults that were incubated in medium alone (Control) or activated with LPS (100 ng/mL). CRISPP (1 nM) was added at 0, 30, or 60 minutes after LPS, and the presence of NETs was assessed by live cell imaging as in FIG. 1A after an additional 1 hour of incubation (20× magnification; scale bar=100 μm). The images are representative of three separate experiments.
(§1) For selected experiments, primary PMNs were pre-incubated with autologous plasma, cord blood plasma, nNIF (0.2-70 nM), CRISPP (0.2-70 nM), nNIF-SCR (1 nM), or CRISPP-SCR (1 nM) for one hour prior to stimulation. After pre-incubation and/or stimulation, PMNs were gently washed with PBS and incubated with a mixture of cell permeable (SYTO® Green, MOLECULAR PROBES®) and impermeable (SYTOX® Orange, MOLECULAR PROBES®) DNA fluorescent dyes. Confocal microscopy was accomplished using a FV1000 IX81 confocal microscope and FLUOVIEW™ software (OLYMPUS™). Both 20× and 60× objectives were used. Z-series images were obtained at a step size of 1 μm over a range of 20 μm for each field. FLUOVIEW™ and ADOBE™ PHOTOSHOP™ CS2 software was used for image processing.

[5] = test system: neutrophil extracellular trap (NET) formation; test: In vitro NET formation by stimulated human PMNs (live cell imaging, NET-associated histone H3 release); type: cell-based; details: for NET formation triggered by LPS: adult PMNs preincubated with agent, LPS 100 ng/mL, 1 hour
Experimental: as §1, with “Qualitative assessment of NET formation was performed as previously reported (see Yost C C, et al., Blood. 2009; 113 (25):6419-27 and McInturff A M, et al., Blood. 2012; 120 (15):3118-25). Briefly, primary PMNs isolated from preterm infants, healthy term infants, and healthy adults (2×10^6 cells/mL) were incubated with control buffer or stimulated with indicated agonists or bacteria for 1 hour at 37° C. in 5% CO2/95% air on glass coverslips coated with poly-L-lysine. For” for “For”
Using BSL 2 safety protocols, primary PMNs isolated from healthy adults (2×10^6 cells/mL) were incubated with mock infection buffer or live dengue virus (M010.05) as for live cell imaging. After a 1-hour incubation, the infected PMNs were fixed with 2% p-FA for 10 minutes prior to incubation with fluorescently-labeled, cell-permeable and cell-impermeable DNA dyes, and imaged as for live cell imaging using confocal microscopy.
NET-associated histone H3 content was determined as previously described (see McInturff A M, et al., Blood. 2012; 120 (15):3118-25). After live cell imaging of control and stimulated primary PMNs (2×10^6/mL; various agonists), the cells were incubated with PBS containing DNase (40 U/mL) for 15 minutes at room temperature to break down and release NETs formed in response to stimulation. The supernatant was gently removed and centrifuged at 420×g for 5 minutes. The cell-free supernatant was then mixed 3:1 with 4× Laemmli buffer prior to western blotting. A polyclonal primary antibody against human histone H3 protein (CELL SIGNALING®) and infrared-conjugated secondary antibodies (LI-COR®) were used. Imaging and densitometry were performed on the ODYSSEY® infrared imaging system)(LI-COR®). This assay was previously validated as a surrogate for NET formation under in vitro conditions (see McInturff A M, et al., Blood. 2012; 120 (15):3118-25) as employed in the present studies.
Without being bound by any specific theory, it was hypothesized that placentally expressed HTRA1, a serine protease, regulates the formation of NET-inhibitory peptides through cleavage of AAT. To test this hypothesis, term and preterm placenta were assessed for HTRA1 expression via western blotting. HTRA1 and AAT plasma expression from term and preterm infants and adults were determined by ELISA. Bioactive (0.5 μg) or placental eluted HTRA1 was incubated with AAT (8 μM) for 18 hours at 37° C. Carboxy-terminus fragments of AAT were detected using western blotting and mass spectrometry. The reaction products were incubated for 1 hour with PMNs isolated from healthy adults prior to LPS stimulation (100 ng/mL) and assessed for NET formation using live cell imaging. Reactive oxygen species were assessed using flow cytometry, chemotaxis using a modified Boyden chamber assay, and bacterial killing using E. coli.

[6] = molecular target: T2, recombinant PAD4 (Homo sapiens, UniProt Q9UM07); test: Cell-free PAD4 deimination assay; type: biochemical; details: initial comparison of NRPs
T2 construct: purchased CAYMAN
T2 sequence (Q9UM07 whole entry): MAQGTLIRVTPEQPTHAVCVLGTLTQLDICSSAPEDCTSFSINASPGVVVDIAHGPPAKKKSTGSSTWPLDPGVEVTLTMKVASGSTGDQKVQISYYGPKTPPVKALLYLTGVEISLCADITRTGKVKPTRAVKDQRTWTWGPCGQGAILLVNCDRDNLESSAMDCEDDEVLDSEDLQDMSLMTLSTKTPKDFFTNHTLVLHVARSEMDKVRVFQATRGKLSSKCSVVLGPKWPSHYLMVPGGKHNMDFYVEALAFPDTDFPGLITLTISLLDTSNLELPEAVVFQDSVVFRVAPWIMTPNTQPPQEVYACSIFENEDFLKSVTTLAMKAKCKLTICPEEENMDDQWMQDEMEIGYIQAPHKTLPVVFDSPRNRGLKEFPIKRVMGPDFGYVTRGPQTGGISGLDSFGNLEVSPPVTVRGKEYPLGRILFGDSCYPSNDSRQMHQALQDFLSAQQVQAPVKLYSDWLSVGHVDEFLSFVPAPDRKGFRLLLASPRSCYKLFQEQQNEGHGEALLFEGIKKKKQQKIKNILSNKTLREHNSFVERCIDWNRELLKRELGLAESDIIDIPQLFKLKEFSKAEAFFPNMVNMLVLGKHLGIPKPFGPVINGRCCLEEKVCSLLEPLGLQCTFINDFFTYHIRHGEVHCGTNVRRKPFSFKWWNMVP
Experimental: One way ANOVA with Tukey's post hoc testing, ***P<0.001.
nNIF inhibition of PAD4 activity was determined using a PAD4 inhibitor screening assay kit (CAYMAN™). Briefly, nNIF (1 nM) was incubated with recombinant PAD4 and PAD4 enzyme substrate (2 mM) in PAD4 assay reagent for 30 minutes at 37° C. […] The reaction was stopped with PAD4 Stop Solution and detected using an included ammonia detector assay. Ammonia detector fluorescence was measured at 470 nm following excitation at 405 nm on a SPECTRAMAX™ M5 fluorescence plate reader (MOLECULAR DEVICES™).

Molecule: NC(=O)[C@H](CCCN=C(N)CCl)NC(=O)c1ccccc1 [Cl-amidine, reference compound]
- nuclear decondensation (number of decondensed nuclei) [1]: blocked nuclear decondensation
- nuclear histone H3 citrullination [2]: inhibited

Molecule: CC(C)(C)C(=O)Oc1ccc(S(=O)(=O)Nc2ccccc2C(=O)NCC(=O)O)cc1 [sivelestat, reference compound]
- nuclear decondensation (number of decondensed nuclei) [1]: blocks nuclear decondensation
- NE activity (substrate cleavage) [3]: inhibited but not eliminated

Molecule: DNase [reference compound]
- degradation or dismantling of previously-formed NETs [4]: dismantled

Molecule: LNTNKTKMGVQFPKMPFFKQIPVNSLEFV (Scrambled Peptide Control) [nNIF-SCR, scrambled control peptide of nNIF, reference compound]
- NET formation triggered by LPS [5]: does not

Molecule: MFLEAIPMSIPPEVKFNKPFVFLMIEQNTKSPLFMLKVVS (listed as Homo sapiens) [A1ATm^358]
- NET formation triggered by LPS [5]: inhibits NET formation, although with lesser potency than nNIF; also recorded: concentration-dependent pattern of inhibition
- relative inhibition of NETosis (order of potency) ([5]; initial comparison of NRPs): nNIF ≈CRISPP>A1ATm^358
- order of potency of inhibition of PAD4 [6]: nNIF ≈CRISPP>A1ATm^358

Molecule: PMVSVAMMLSENIFKLPEVKSVPTEFFPKFINMKLLPFQI (Scrambled Peptide Control) [A1ATm^358-SCR, scrambled A1ATm^358, reference compound]
- NET formation triggered by LPS [5]: not

Molecule: SIPPEVKFNKPFVFLMIEQNTKSPLFMGKWNPTQK (listed as Homo sapiens) [HTRA1-CF, synthesized peptide generated by cleavage of A1AT by HTRA1]
- NET formation (FIG. 14) ([5]; agonist not stated): inhibits NET formation

Molecule: alpha-1-antitrypsin [full-length A1AT]
- NET formation triggered by LPS [5]: did not inhibit NET formation

Molecule: recombinant A1AT: active full-length recombinant A1AT from SIGMA-ALDRICH
- NET formation triggered by LPS [5]: did not inhibit NET formation
